Experimental data taken from ChEMBL document CHEMBL1150212, “Antitumor agents, 129. Tannins and related compounds as selective cytotoxic agents” (1992).

Columns and labels:
Assay type in all cases: functional
Conditions in all cases: read-out: ED50 (the source's name)
[1] = Cytotoxicity against human […] cells by tetrazolium salt-based colorimetric assay
KB = assay: Cytotoxicity against human KB cells by tetrazolium salt-based colorimetric assay
A549 = assay: Cytotoxicity against human A549 cells by tetrazolium salt-based colorimetric assay
HCT-8 = assay: Cytotoxicity against human HCT8 cells by tetrazolium salt-based colorimetric assay
TE-671 = assay: Cytotoxicity against human TE671 cells by tetrazolium salt-based colorimetric assay

SMILES: O=C(O[C@@H]1C[C@](O)(C(=O)O)C[C@@H](OC(=O)c2cc(O)c(O)c(O)c2)[C@H]1OC(=O)c1cc(O)c(O)c(O)c1)c1cc(O)c(O)c(O)c1
- EC50 [1]: > 10 µg/mL
- EC50 (KB): > 10 µg/mL
- EC50 (A549): > 10 µg/mL
- EC50 (HCT-8): > 10 µg/mL
- EC50 (TE-671): > 10 µg/mL

SMILES: O=C1O[C@H]([C@@H]2OC(=O)c3cc(O)c(O)c(O)c3-c3c(O)c(O)c4oc(=O)c5c(c(O)c(O)c6oc(=O)c3c4c65)-c3c(cc(O)c(O)c3O)C(=O)OC[C@H]2O)[C@@H]2OC(=O)c3c(c(O)c(O)c(O)c3[C@H]2O)-c2c1cc(O)c(O)c2O [PUNICACORTEIN C]
- EC50 [1]: 3.86 µg/mL
- EC50 (KB): > 10 µg/mL
- EC50 (A549): > 10 µg/mL
- EC50 (HCT-8): > 10 µg/mL
- EC50 (TE-671): > 10 µg/mL

SMILES: O=C1OC[C@H]2OC(O)[C@@H]3OC(=O)c4cc(O)c(O)c(O)c4-c4c(cc(O)c(O)c4O)C(=O)O[C@H]3[C@@H]2OC(=O)c2cc(O)c(O)c(O)c2-c2c1cc(O)c(O)c2O (stereo not given in full) [PEDUNCULAGIN]
- EC50 [1]: 2.74 µg/mL
- EC50 (KB): > 10 µg/mL
- EC50 (A549): > 10 µg/mL
- EC50 (HCT-8): > 10 µg/mL
- EC50 (TE-671): > 10 µg/mL

SMILES: O=C(O)c1cc(O)c(O)c(Oc2cc3c(c(O)c2O)-c2c(cc(O)c(O)c2O)C(=O)OC[C@H]2O[C@@H](OC(=O)c4cc(O)c(O)c(O)c4)[C@H](OC(=O)c4cc(O)c(O)c(O)c4)[C@@H](OC(=O)c4cc(O)c(O)c(O)c4)[C@@H]2OC3=O)c1
- EC50 [1]: 0.44 µg/mL
- EC50 (KB): > 10 µg/mL
- EC50 (A549): > 10 µg/mL
- EC50 (HCT-8): > 10 µg/mL
- EC50 (TE-671): > 10 µg/mL

SMILES: O=C1OC[C@H]2OC(=O)c3cc(O)c(O)c(O)c3-c3c(O)c(O)c(O)c4c3C(=O)O[C@H]([C@H]3OC(=O)c5c-4c(O)c(O)c(O)c5[C@H]3O)[C@@H]2OC(=O)c2cc(O)c(O)c(O)c2-c2c1cc(O)c(O)c2O [CASTALAGIN]
- EC50 [1]: 0.79 µg/mL
- EC50 (KB): > 10 µg/mL
- EC50 (A549): > 10 µg/mL
- EC50 (HCT-8): > 10 µg/mL
- EC50 (TE-671): > 10 µg/mL

SMILES: O=C(O[C@@H]1O[C@@H]2COC(=O)c3cc(O)c(O)c(O)c3-c3c(cc(O)c(O)c3O)C(=O)O[C@H]2[C@@H]2OC(=O)c3cc(O)c(O)c(O)c3-c3c(cc(O)c(O)c3O)C(=O)O[C@@H]12)c1cc(O)c(O)c(Oc2c(O)c(O)c(O)c3c2C(=O)O[C@H]2[C@@H]4OC(=O)c5cc(O)c(O)c(O)c5-c5c(cc(O)c(O)c5O)C(=O)O[C@H]4[C@@H](OC(=O)c4cc(O)c(O)c(Oc5c(O)c(O)c(O)c6c5C(=O)O[C@H]5[C@@H]7OC(=O)c8cc(O)c(O)c(O)c8-c8c(cc(O)c(O)c8O)C(=O)O[C@H]7[C@H](OC(=O)c7cc(O)c(O)c(Oc8c(O)c(O)c(O)c9c8C(=O)O[C@H]8[C@@H]%10OC(=O)c%11cc(O)c(O)c(O)c%11-c%11c(cc(O)c(O)c%11O)C(=O)O[C@H]%10[C@@H](OC(=O)c%10cc(O)c(O)c(O)c%10)O[C@@H]8COC(=O)c8cc(O)c(O)c(O)c8-9)c7)O[C@@H]5COC(=O)c5cc(O)c(O)c(O)c5-6)c4)O[C@@H]2COC(=O)c2cc(O)c(O)c(O)c2-3)c1
- EC50 [1]: 0.5 µg/mL
- EC50 (KB): > 10 µg/mL
- EC50 (A549): > 10 µg/mL
- EC50 (HCT-8): > 10 µg/mL
- EC50 (TE-671): > 10 µg/mL

SMILES: O=C(O[C@@H]1O[C@@H]2COC(=O)c3cc(O)c(O)c(O)c3-c3c(cc(O)c(O)c3O)C(=O)O[C@H]2[C@H](OC(=O)c2cc(O)c(O)c(O)c2)[C@H]1OC(=O)c1cc(O)c(O)c(O)c1)c1cc(O)c(O)c(O)c1 [EUGENIIN]
- EC50 [1]: 2.74 µg/mL
- EC50 (KB): > 10 µg/mL
- EC50 (A549): > 10 µg/mL
- EC50 (HCT-8): > 10 µg/mL
- EC50 (TE-671): > 10 µg/mL

SMILES: O=C(OC[C@H]1O[C@@H](OC(=O)c2cc(O)c(O)c(O)c2)[C@H](O)[C@@H](O)[C@@H]1O)c1cc(O)c(O)c(O)c1
- EC50 [1]: > 10 µg/mL
- EC50 (KB): > 10 µg/mL
- EC50 (A549): > 10 µg/mL
- EC50 (HCT-8): > 10 µg/mL
- EC50 (TE-671): > 10 µg/mL

SMILES: O=C(OC[C@H]1O[C@@H](O)[C@H](OC(=O)c2cc(O)c(O)c(O)c2)[C@@H](OC(=O)c2cc(O)c(O)c(O)c2)[C@@H]1OC(=O)c1cc(O)c(O)c(O)c1)c1cc(O)c(O)c(O)c1
- EC50 [1]: > 10 µg/mL
- EC50 (KB): > 10 µg/mL
- EC50 (A549): > 10 µg/mL
- EC50 (HCT-8): > 10 µg/mL
- EC50 (TE-671): > 10 µg/mL

SMILES: O=C1O[C@H]2[C@H](O)[C@@H](CO)OC(O)[C@@H]2OC(=O)c2cc(O)c(O)c(O)c2-c2c1cc(O)c(O)c2O (stereo not given in full)
- EC50 [1]: > 10 µg/mL
- EC50 (KB): > 10 µg/mL
- EC50 (A549): > 10 µg/mL
- EC50 (HCT-8): > 10 µg/mL
- EC50 (TE-671): > 10 µg/mL

SMILES: Oc1cc(O)c2c(c1)O[C@H](c1ccc(O)c(O)c1)[C@H](O)[C@H]2c1c(O)cc(O)c2c1O[C@@]1(c3ccc(O)c(O)c3)Oc3cc(O)c4c(c3[C@@H]2[C@H]1O)O[C@H](c1ccc(O)c(O)c1)[C@H](O)[C@H]4c1c(O)cc(O)c2c1O[C@H](c1ccc(O)c(O)c1)[C@H](O)C2 [CINNAMTANNIN B2]
- EC50 [1]: 0.66 µg/mL
- EC50 (KB): > 10 µg/mL
- EC50 (A549): > 10 µg/mL
- EC50 (HCT-8): > 10 µg/mL
- EC50 (TE-671): > 10 µg/mL

SMILES: O=C(O[C@H]1[C@H](O)C[C@](OC(=O)c2cc(O)c(O)c(O)c2)(C(=O)O)C[C@H]1OC(=O)c1cc(O)c(O)c(O)c1)c1cc(O)c(O)c(O)c1
- EC50 [1]: > 10 µg/mL
- EC50 (KB): > 10 µg/mL
- EC50 (A549): > 10 µg/mL
- EC50 (HCT-8): > 10 µg/mL
- EC50 (TE-671): > 10 µg/mL

SMILES: O=C(O)C[C@@H]1C(=O)O[C@H]2[C@@H]3OC(=O)c4cc(O)c(O)c(O)c4-c4c(cc(O)c(O)c4O)C(=O)OC[C@H]2O[C@@H](OC(=O)c2cc(O)c(O)c(O)c2)[C@@H]3OC(=O)c2cc(O)c(O)c3c2[C@H]1[C@H](O)C(=O)O3 [CHEBULAGIC ACID]
- EC50 [1]: 0.8 µg/mL
- EC50 (KB): > 10 µg/mL
- EC50 (A549): > 10 µg/mL
- EC50 (HCT-8): > 10 µg/mL
- EC50 (TE-671): > 10 µg/mL

SMILES: O=C(O)C1=C[C@@H](O)[C@@H](O)[C@H](OC(=O)c2cc(O)c(O)c(O)c2)C1
- EC50 [1]: > 10 µg/mL
- EC50 (KB): > 10 µg/mL
- EC50 (A549): > 10 µg/mL
- EC50 (HCT-8): > 10 µg/mL
- EC50 (TE-671): > 10 µg/mL

SMILES: O=C1O[C@H]2[C@@H]3OC(=O)c4cc(O)c(O)c(O)c4-c4c(cc(O)c(O)c4O)C(=O)OC[C@H]2O[C@@H](OC(=O)c2cc(O)c(O)c(O)c2)[C@@H]3OC(=O)c2cc(O)c(O)c3c2[C@@H]2C1=CC(=O)[C@](O)(O3)C2(O)O [GERANIIN]
- EC50 [1]: 0.35 µg/mL
- EC50 (KB): > 10 µg/mL
- EC50 (A549): > 10 µg/mL
- EC50 (HCT-8): > 10 µg/mL
- EC50 (TE-671): > 10 µg/mL

SMILES: O=C1OC[C@H]2OC(=O)c3cc(O)c(O)c(O)c3-c3c(O)c(O)c(O)c4c3C(=O)O[C@H]([C@@H]3OC(=O)c5c-4c(O)c(O)c(O)c5[C@@H]3c3c(O)cc(O)c4c3O[C@H](c3ccc(O)c(O)c3)[C@@H](O)C4)[C@H]2OC(=O)c2cc(O)c(O)c(O)c2-c2c1cc(O)c(O)c2O [ACUTISSIMIN A]
- EC50 [1]: 0.61 µg/mL
- EC50 (KB): > 10 µg/mL
- EC50 (A549): > 10 µg/mL
- EC50 (HCT-8): > 10 µg/mL
- EC50 (TE-671): > 10 µg/mL

SMILES: O=C1O[C@H]2[C@@H]3OC(=O)c4cc(Oc5c(C(=O)O)cc(O)c(O)c5O)c(O)c(O)c4-c4c(cc(O)c(O)c4O)C(=O)OC[C@H]2O[C@@H](OC(=O)c2cc(O)c(O)c(O)c2)[C@@H]3OC(=O)c2cc(O)c(O)c3c2[C@@H]2C1=CC(=O)[C@](O)(O3)C2(O)O [MALLOTUSINIC ACID]
- EC50 [1]: > 10 µg/mL
- EC50 (KB): > 10 µg/mL
- EC50 (A549): > 10 µg/mL
- EC50 (HCT-8): > 10 µg/mL
- EC50 (TE-671): > 10 µg/mL

SMILES: CC1(C)CC[C@]2(C(=O)O)CC[C@]3(C)C(=CC[C@@H]4[C@@]5(C)C[C@@H](O)[C@@H]6OC(=O)c7cc(O)c(O)c(O)c7-c7c(cc(O)c(O)c7O)C(=O)OC[C@@]6(CO)[C@@H]5CC[C@]43C)[C@@H]2C1 [CASTANOPSINIIN A]
- EC50 [1]: > 10 µg/mL
- EC50 (KB): > 10 µg/mL
- EC50 (A549): > 10 µg/mL
- EC50 (HCT-8): > 10 µg/mL
- EC50 (TE-671): > 10 µg/mL
